Consider five compounds from patent publication US5721219A, “N-alkyl-2-substituted ATP analogues and administration to inhibit platelet aggregation” (Astra Pharmaceuticals Ltd., priority 1993, dated 1998).

Counter-ions that a name gives are not always drawn.

In test [1] the test system is guinea pig taenia coli. The note with it: Maguire and Satchell 1979; cited from earlier work.
Test [2] deals with T1, P2T receptor (Homo sapiens, UniProt Q9H244).
T1 construct: activity in washed human platelets; endogenous in cells; host or cells: washed human platelets from venous blood of donors
Nature of the test: P2T receptor agonist/antagonist activity in washed human platelets (inhibition of ADP-induced aggregation). The format is cell-based. The settings on record: submaximal ADP, 15 min incubation with test compound, 8-SPT present, % inhibition of control ADP response giving approximate IC50, read-out: pIC50 (negative logarithm of the antagonist potency) (converted). The method, then:
Quantification of P2T receptor aganoist/antagonist activity in washed human platelets Human venous blood (100 ml) was divided equally between 3 tubes, each containing 3.2% trisodium citrate (4 ml) as anti-coagulant. The tubes were centrifuged for 15 min at 240G to obtain a platelet-rich plasma (PRP) to which 300 ng.ml^-1 prostacyclin (PGI2, 3 μl.ml^-1 PRP of 1/10 diln. in saline from stock 1 mg/ml^-1 in ethanol) was added to stabilize the platelets during the washing procedure. Red cell free PRP was obtained by centrifugation for 10 min at 125G followed by further centrifugation for 15 min at 640G. The supernatant was discarded and the platelet pellet resuspended in modified, calcium free, Tyrode solution [(10 ml) CFT, composition: NaCl 137 mM (8 g.l^-1), NaHCO3 11.9 mM (1 g.l^-1), NaH2 PO, 0.38 mM (0.06 g.l^-1), KCl 2.86 mM (1 ml of 20% soln.l^-1), MgCl2 1.05 mM (1 ml of 10% soln.l^-1), dextrose 5.55 mM (1 g.l^-1)], gassed with 95% O2 /5% CO2 and maintained at 37°. Following addition of a further 300 ng.ml^-1PGI2, the pooled suspension was centrifuged once more for 15 min at 640G. The supernatant was discarded and the platelets resuspended initially in 10 ml CFT with further CFT added to adjust the final platelet count to 2×10^5.μl^-1. This final suspension was stored in a 60 ml syringe at 3° with air excluded.
To allow recovery from PGI2 -inhibition of normal function, platelets were used in aggregation studies no sooner than 2 hours after final resuspension. […]
A concentration of ADP producing a just submaximal response was selected by constructing a concentration/response curve over the range 10-300 μM. the appropriate solution of ADP was added to the aggregation cuvette in a volume of 10 μl, 20 min after starting the aggregation trace. Aggregation responses were measured using the maximum rate of change in light transmission, an index given by the PAP4 slope-reader. […]

Test [3] relates to platelet aggregation. The note with it: Cusack and Hourani, Nucleosides & Nucleotides 1991; cited from earlier work.

T1 sequence (Q9H244 whole entry): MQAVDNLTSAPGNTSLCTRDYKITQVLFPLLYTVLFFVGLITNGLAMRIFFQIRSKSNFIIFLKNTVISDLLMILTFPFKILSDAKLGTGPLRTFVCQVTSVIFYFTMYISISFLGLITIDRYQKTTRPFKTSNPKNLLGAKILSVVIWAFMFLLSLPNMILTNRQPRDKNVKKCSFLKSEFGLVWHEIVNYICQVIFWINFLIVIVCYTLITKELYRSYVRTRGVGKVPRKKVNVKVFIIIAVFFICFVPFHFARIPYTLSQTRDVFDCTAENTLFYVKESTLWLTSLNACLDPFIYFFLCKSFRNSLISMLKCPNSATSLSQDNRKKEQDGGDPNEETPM

Take `Nc1nc(Cl)nc2c1ncn2[C@@H]1O[C@H](COP(=O)(O)OP(=O)(O)CP(=O)(O)O)[C@@H](O)[C@H]1O` [2-chloro-5'-adenylic acid, monoanhydride with methylenebisphosphonic acid]: in test [1], the “inhibition of guinea pig taenia coli” value is “inhibition”.
For `CCNc1nc(SCCC(F)(F)F)nc2c1ncn2[C@@H]1O[C@H](COP(=O)(O)OP(=O)(O)C(Cl)(Cl)P(=O)(O)O)[C@@H](O)[C@H]1O` [Example 5, N-Ethyl-2-[(3,3,3-trifluoropropyl)thio]-5'-adenylic acid, monoanhydride with dichloromethylenebisphosphonic acid, trisodium salt], the IC50 in test [2] was 2.09 nM.
Same read-out and setting: in the case of `CCCSc1nc(NCC)c2ncn([C@@H]3O[C@H](COP(=O)(O)OP(=O)(O)C(Cl)(Cl)P(=O)(O)O)[C@@H](O)[C@H]3O)c2n1` [Example 1, N-Ethyl-2-(propylthio)-5'-adenylic acid, monoanhydride with dichloromethylenebisphosphonic acid, tetrasodium salt] it was 0.912 nM.
Still for that read-out and setting: in the case of `O=P(O)(OC[C@H]1O[C@@H](n2cnc3c(NCC(F)(F)F)nc(SCCC(F)(F)F)nc32)[C@H](O)[C@@H]1O)OP(=O)(O)C(Cl)(Cl)P(=O)(O)O` [Example 6a, N-(2,2,2-Trifluoroethyl)-2-[(3,3,3-trifluoropropyl)thio]-5'-adenylic acid, monoanhydride with dichloromethylenebisphosphonic acid, triammonium salt] it was 0.724 nM.
For `CSc1nc(N)c2ncn([C@@H]3O[C@H](COP(=O)(O)OP(=O)(O)CP(=O)(O)O)[C@@H](O)[C@H]3O)c2n1` [2-methylthio-5'-adenylic acid, monoanhydride with methylenebisphosphonic acid], the “inhibition of ADP-α-S induced platelet aggregation” value in test [3] is given as “inhibits”.
